According to patent US20260250318A1, “COMPOSITIONS AND METHODS FOR CROSSING THE BLOOD BRAIN BARRIER” (VOYAGER THERAPEUTICS, INC., priority 2022, published 2026):

Key:
[1] = system: brains, heart, liver, muscle, and DRG of the NHPs; assay: Maturation of TTM-001 and TTM-002 capsids, NGS enrichment in NHP tissues; type: in vivo; conditions: relative to AAV9 control
Method in brief: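 Variants carry mutations within and flanking the loop IV peptide insert: positions 450–466 were triplet-randomized, while positions 449–466 received low-frequency point mutations. The combined pool went into two NHPs, and each peptide was scored by NGS enrichment ratio against AAV9.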

brain = assay: Matured TTM-001 and TTM-002 variants, NGS enrichment in mouse brain; type: in vivo, mice; conditions: relative to AAV9 control
[2] = NGS fold-enrichment, DRG of NHPs
[3] = NGS fold-enrichment, RNA, brain of NHPs
[4] = NGS fold-enrichment, heart of NHPs
[5] = NGS fold-enrichment, liver DNA of NHPs
[6] = NGS fold-enrichment, liver RNA of NHPs
[7] = NGS fold-enrichment, muscle of NHPs
[8] = NGS fold-enrichment, brain of mice
[9] = NGS fold-enrichment of matured AAV capsid variants, NHP brain, RNA
[10] = NGS fold-enrichment of RNA, NHP brain
[11] = NGS fold-enrichment, NHP liver DNA
[12] = NGS fold-enrichment, NHP liver RNA
[13] = NGS fold-enrichment, NHP muscle
[14] = NGS fold-enrichment, mouse brain

Sequence | Fold Enrichment relative to AAV9, DRG (NHP) [1, 2] | Fold Enrichment relative to AAV9, Brain (NHP) [1, 3] | Fold Enrichment relative to AAV9, Heart (NHP) [1, 4] | Fold Enrichment relative to AAV9, Liver DNA (NHP) [1, 5] | Fold Enrichment relative to AAV9, Liver RNA (NHP) [1, 6] | Fold Enrichment relative to AAV9, Muscle (NHP) [1, 7] | Fold Enrichment relative to AAV9, Brain (Mouse) (brain; [8]) | Fold Enrichment relative to AAV9, Brain (NHP) [1, 10] | Fold Enrichment relative to AAV9, DRG (NHP) ([1]; NGS fold-enrichment, NHP DRG) | Fold Enrichment relative to AAV9, Heart (NHP) ([1]; NGS fold-enrichment, NHP heart) | Fold Enrichment relative to AAV9, Liver DNA (NHP) [1, 11] | Fold Enrichment relative to AAV9, Liver RNA (NHP) [1, 12] | Fold Enrichment relative to AAV9, Muscle (NHP) [1, 13] | Fold Enrichment relative to AAV9, Brain (Mouse) (brain; [14]) | other results
KTIRDAGSPHSKAQNQQT | 0.000 fold | 60.346 fold | 0.000 fold | 0.251 fold | 0.141 fold | 0.000 fold | 113.179 fold | – | – | – | – | – | – | – | –
KTIRENGSPHSKAQNQQT | – | – | – | – | – | – | – | – | – | – | – | – | – | – | Fold Enrichment relative to AAV9, Brain (NHP) [1, 9]: 55.605 fold; Fold Enrichment relative to AAV9, DRG (NHP) ([1]; NHP DRG): 0.000 fold; Fold Enrichment relative to AAV9, Heart (NHP) ([1]; NHP heart): 0.000 fold; Fold Enrichment relative to AAV9, Liver DNA (NHP) ([1]; NHP liver, DNA): 0.257 fold; Fold Enrichment relative to AAV9, Liver RNA (NHP) ([1]; NHP liver, RNA): 0.131 fold; Fold Enrichment relative to AAV9, Muscle (NHP) ([1]; NHP muscle): 0.016 fold; Fold Enrichment relative to AAV9, Brain (Mouse) (brain; mouse brain): 95.931 fold
KTISGGGSPHSKAQNQQN | 0.000 fold | 59.801 fold | 0.000 fold | 0.039 fold | 0.722 fold | 0.000 fold | 87.761 fold | – | – | – | – | – | – | – | –
KTISGHDSPHKTGHNQQT | – | – | – | – | – | – | – | 92.490 fold | 0.000 fold | 0.233 fold | 0.000 fold | 0.730 fold | 0.057 fold | 8.823 fold | –
KTISGSGSPHSKAQYQHT | 0.000 fold | 66.739 fold | 0.000 fold | 0.191 fold | 0.000 fold | 0.000 fold | 59.822 fold | – | – | – | – | – | – | – | –
KTITGHDSPHKSGQHLQT | – | – | – | – | – | – | – | 137.945 fold | 0.000 fold | 0.072 fold | 0.000 fold | 0.000 fold | 0.000 fold | 4.187 fold | –
KTITGHDSPHKSGQNQWT | – | – | – | – | – | – | – | 81.658 fold | 0.000 fold | 0.090 fold | 0.000 fold | 0.936 fold | 0.000 fold | 7.744 fold | –
KTITGSGSPHSKAQTQLT | 0.160 fold | 60.846 fold | 8.992 fold | 0.000 fold | 0.000 fold | 0.000 fold | 55.640 fold | – | – | – | – | – | – | – | –
KTIYGHDSPHKSVQNQLT | – | – | – | – | – | – | – | 92.381 fold | 0.000 fold | 0.043 fold | 0.016 fold | 0.103 fold | 0.000 fold | 12.323 fold | –
KTLNGNGSPHSKAQNLQT | – | – | – | – | – | – | – | – | – | – | – | – | – | – | Fold Enrichment relative to AAV9, Brain (NHP) [1, 9]: 54.458 fold; Fold Enrichment relative to AAV9, DRG (NHP) ([1]; NHP DRG): 0.668 fold; Fold Enrichment relative to AAV9, Heart (NHP) ([1]; NHP heart): 0.000 fold; Fold Enrichment relative to AAV9, Liver DNA (NHP) ([1]; NHP liver, DNA): 0.172 fold; Fold Enrichment relative to AAV9, Liver RNA (NHP) ([1]; NHP liver, RNA): 0.161 fold; Fold Enrichment relative to AAV9, Muscle (NHP) ([1]; NHP muscle): 0.000 fold; Fold Enrichment relative to AAV9, Brain (Mouse) (brain; mouse brain): 159.134 fold
KTNNGGGSPHSKAQNLQT | – | – | – | – | – | – | – | – | – | – | – | – | – | – | Fold Enrichment relative to AAV9, Brain (NHP) [1, 9]: 54.963 fold; Fold Enrichment relative to AAV9, DRG (NHP) ([1]; NHP DRG): 0.000 fold; Fold Enrichment relative to AAV9, Heart (NHP) ([1]; NHP heart): 0.000 fold; Fold Enrichment relative to AAV9, Liver DNA (NHP) ([1]; NHP liver, DNA): 0.089 fold; Fold Enrichment relative to AAV9, Liver RNA (NHP) ([1]; NHP liver, RNA): 0.000 fold; Fold Enrichment relative to AAV9, Muscle (NHP) ([1]; NHP muscle): 0.000 fold; Fold Enrichment relative to AAV9, Brain (Mouse) (brain; mouse brain): 80.506 fold
KTNNGHDSPHKSVQNQHT | – | – | – | – | – | – | – | 115.172 fold | 0.000 fold | 0.083 fold | 0.062 fold | 0.000 fold | 0.000 fold | 7.934 fold | –
KTNNGSGSPHSKAQNQQY | 0.000 fold | 68.530 fold | 0.040 fold | 0.059 fold | 0.000 fold | 0.000 fold | 82.656 fold | – | – | – | – | – | – | – | –
KTRDASGSPHSKAQNQQT | – | – | – | – | – | – | – | – | – | – | – | – | – | – | Fold Enrichment relative to AAV9, Brain (NHP) [1, 9]: 52.861 fold; Fold Enrichment relative to AAV9, DRG (NHP) ([1]; NHP DRG): 0.000 fold; Fold Enrichment relative to AAV9, Heart (NHP) ([1]; NHP heart): 0.000 fold; Fold Enrichment relative to AAV9, Liver DNA (NHP) ([1]; NHP liver, DNA): 0.402 fold; Fold Enrichment relative to AAV9, Liver RNA (NHP) ([1]; NHP liver, RNA): 1.062 fold; Fold Enrichment relative to AAV9, Muscle (NHP) ([1]; NHP muscle): 0.010 fold; Fold Enrichment relative to AAV9, Brain (Mouse) (brain; mouse brain): 52.089 fold
KTREISGSPHSKAQNQQT | – | – | – | – | – | – | – | – | – | – | – | – | – | – | Fold Enrichment relative to AAV9, Brain (NHP) [1, 9]: 59.027 fold; Fold Enrichment relative to AAV9, DRG (NHP) ([1]; NHP DRG): 0.000 fold; Fold Enrichment relative to AAV9, Heart (NHP) ([1]; NHP heart): 0.042 fold; Fold Enrichment relative to AAV9, Liver DNA (NHP) ([1]; NHP liver, DNA): 0.269 fold; Fold Enrichment relative to AAV9, Liver RNA (NHP) ([1]; NHP liver, RNA): 0.356 fold; Fold Enrichment relative to AAV9, Muscle (NHP) ([1]; NHP muscle): 0.224 fold; Fold Enrichment relative to AAV9, Brain (Mouse) (brain; mouse brain): 51.696 fold
KTSNASGSPHSKAHNQQT | 0.000 fold | 59.607 fold | 0.078 fold | 0.050 fold | 0.031 fold | 0.067 fold | 67.967 fold | – | – | – | – | – | – | – | –
KTSNASGSPHSKAQHQQT | – | – | – | – | – | – | – | 165.206 fold | 0.000 fold | 0.000 fold | 0.082 fold | 0.000 fold | 0.000 fold | 40.558 fold | –
KTSNASGSPHSKAQNQLT | 0.000 fold | 73.501 fold | 0.000 fold | 0.313 fold | 0.000 fold | 0.297 fold | 150.401 fold | – | – | – | – | – | – | – | –
KTSNESGSPHSKAQNHQT | 0.000 fold | 75.720 fold | 0.000 fold | 0.217 fold | 0.169 fold | 0.000 fold | 70.590 fold | 75.720 fold | 0.000 fold | 0.000 fold | 0.217 fold | 0.169 fold | 0.000 fold | 70.590 fold | –
KTSNGGGSPHSKAQNLQT | 0.000 fold | 68.311 fold | 0.052 fold | 0.000 fold | 0.000 fold | 0.000 fold | 124.871 fold | – | – | – | – | – | – | – | –
KTSNGHDSPHKSGQNQPA | – | – | – | – | – | – | – | 75.834 fold | 0.000 fold | 0.056 fold | 0.000 fold | 0.000 fold | 0.000 fold | 8.501 fold | –
KTSNGSGSPHSKAHYQQT | – | – | – | – | – | – | – | – | – | – | – | – | – | – | Fold Enrichment relative to AAV9, Brain (NHP) [1, 9]: 54.414 fold; Fold Enrichment relative to AAV9, DRG (NHP) ([1]; NHP DRG): 0.000 fold; Fold Enrichment relative to AAV9, Heart (NHP) ([1]; NHP heart): 0.251 fold; Fold Enrichment relative to AAV9, Liver DNA (NHP) ([1]; NHP liver, DNA): 0.204 fold; Fold Enrichment relative to AAV9, Liver RNA (NHP) ([1]; NHP liver, RNA): 0.249 fold; Fold Enrichment relative to AAV9, Muscle (NHP) ([1]; NHP muscle): 0.000 fold; Fold Enrichment relative to AAV9, Brain (Mouse) (brain; mouse brain): 54.162 fold
